# According to ChEMBL document CHEMBL3774317, “Design and synthesis of novel tamoxifen analogues that avoid CYP2D6 metabolism” (Eur J Med Chem, 2016):
# Legend:
# Assay type in all cases: functional
# [1] = Cytotoxicity against human PC3 cells assessed as cell growth at 10^-7 M after 48 hrs by SRB assay; conditions: PC-3, 48 h, read-out: Activity
# SR = experiment: Cytotoxicity against human SR cells assessed as cell growth at 10^-8 M after 48 hrs by SRB assay; conditions: read-out: Activity
# [2] = Cytotoxicity against human SF268 cells assessed as cell growth at 10^-8 M after 48 hrs by SRB assay; conditions: SF-268, 48 h, read-out: Activity
# [3] = Cytotoxicity against human RPMI8226 cells assessed as cell growth at 10^-7 M after 48 hrs by SRB assay; conditions: RPMI-8226, 48 h, read-out: Activity
# NCI-H23 [4] = experiment: Cytotoxicity against human NCI-H23 cells assessed as cell growth at 10^-8 M after 48 hrs by SRB assay; conditions: NCI-H23, 48 h, read-out: Activity
# [5] = Cytotoxicity against human SKOV3 cells assessed as cell growth at 10^-6 M after 48 hrs by SRB assay; conditions: SK-OV-3, 48 h, read-out: Activity
# SK-MEL-5 = experiment: Cytotoxicity against human SK-MEL-5 cells assessed as cell growth at 10^-8 M after 48 hrs by SRB assay; conditions: SK-MEL-5, 48 h, read-out: Activity
# NCI-H23 [6] = experiment: Cytotoxicity against human NCI-H23 cells assessed as cell growth at 10^-6 M after 48 hrs by SRB assay; conditions: NCI-H23, 48 h, read-out: Activity
# SK-MEL-2 [7] = experiment: Cytotoxicity against human SK-MEL-2 cells assessed as cell growth at 10^-5 M after 48 hrs by SRB assay; conditions: SK-MEL-2, 48 h, read-out: Activity
# U-251 [8] = experiment: Cytotoxicity against human U251 cells assessed as cell growth at 10^-5 M after 48 hrs by SRB assay; conditions: U-251, 48 h, read-out: Activity
# SK-MEL-28 = experiment: Cytotoxicity against human SK-MEL-28 cells assessed as cell growth at 10^-4 M after 48 hrs by SRB assay; conditions: SK-MEL-28, 48 h, read-out: Activity
# HT-29 = experiment: Cytotoxicity against human HT-29 cells assessed as cell growth at 10^-7 M after 48 hrs by SRB assay; conditions: HT-29, 48 h, read-out: Activity
# EKVX [9] = experiment: Cytotoxicity against human EKVX cells assessed as cell growth at 10^-6 M after 48 hrs by SRB assay; conditions: read-out: Activity
# K562 [10] = experiment: Cytotoxicity against human K562 cells assessed as cell growth at 10^-6 M after 48 hrs by SRB assay; conditions: K562, 48 h, read-out: Activity
# [11] = Cytotoxicity against human COLO205 cells assessed as cell growth at 10^-6 M after 48 hrs by SRB assay; conditions: COLO 205, 48 h, read-out: Activity
# [12] = Cytotoxicity against human RXF393 cells assessed as cell growth at 10^-7 M after 48 hrs by SRB assay; conditions: RXF 393, 48 h, read-out: Activity
# SN12C [13] = experiment: Cytotoxicity against human SN12C cells assessed as cell growth at 10^-8 M after 48 hrs by SRB assay; conditions: read-out: Activity
# SN12C [14] = experiment: Cytotoxicity against human SN12C cells assessed as cell growth at 10^-5 M after 48 hrs by SRB assay; conditions: read-out: Activity
# SK-MEL-2 [15] = experiment: Cytotoxicity against human SK-MEL-2 cells assessed as cell growth at 10^-7 M after 48 hrs by SRB assay; conditions: SK-MEL-2, 48 h, read-out: Activity
# U-251 [16] = experiment: Cytotoxicity against human U251 cells assessed as cell growth at 10^-8 M after 48 hrs by SRB assay; conditions: U-251, 48 h, read-out: Activity
# MDA-MB-468 = experiment: Cytotoxicity against human MDA-MB-468 cells assessed as cell growth at 10^-8 M after 48 hrs by SRB assay; conditions: MDA-MB-468, 48 h, read-out: Activity
# SN12C [17] = experiment: Cytotoxicity against human SN12C cells assessed as cell growth at 10^-4 M after 48 hrs by SRB assay; conditions: read-out: Activity
# [18] = Cytotoxicity against human SKOV3 cells assessed as cell growth at 50 nM after 48 hrs by SRB assay; conditions: SK-OV-3, 48 h, read-out: Activity
# MCF7 = experiment: Cytotoxicity against human MCF7 cells assessed as cell growth at 5 uM after 48 hrs by SRB assay; conditions: MCF7, 48 h, read-out: Activity
# [19] = Cytotoxicity against human SF268 cells assessed as cell growth at 0.5 uM after 48 hrs by SRB assay; conditions: SF-268, 48 h, read-out: Activity
# ACHN = experiment: Cytotoxicity against human ACHN cells assessed as cell growth at 50 uM after 48 hrs by SRB assay; conditions: read-out: Activity
# [20] = Cytotoxicity against human PC3 cells assessed as cell growth at 5 uM after 48 hrs by SRB assay; conditions: PC-3, 48 h, read-out: Activity
# NCI-H23 [21] = experiment: Cytotoxicity against human NCI-H23 cells assessed as cell growth at 5 nM after 48 hrs by SRB assay; conditions: NCI-H23, 48 h, read-out: Activity
# CCRF-CEM = experiment: Cytotoxicity against human CCRF-CEM cells assessed as cell growth at 0.5 uM after 48 hrs by SRB assay; conditions: read-out: Activity
# Malme-3M = experiment: Cytotoxicity against human MALME-3M cells assessed as cell growth at 5 uM after 48 hrs by SRB assay; conditions: read-out: Activity
# [22] = Cytotoxicity against human BT549 cells assessed as cell growth at 50 nM after 48 hrs by SRB assay; conditions: BT-549, 48 h, read-out: Activity
# 786-0 = experiment: Cytotoxicity against human 786-0 cells assessed as cell growth at 5 uM after 48 hrs by SRB assay; conditions: 786-0, 48 h, read-out: Activity
# [23] = Cytotoxicity against human SF295 cells assessed as cell growth at 50 nM after 48 hrs by SRB assay; conditions: SF-295, 48 h, read-out: Activity
# [24] = Cytotoxicity against human Hs 578T cells assessed as cell growth at 5 nM after 48 hrs by SRB assay; conditions: read-out: Activity
# SN12C [25] = experiment: Cytotoxicity against human SN12C cells assessed as cell growth at 50 nM after 48 hrs by SRB assay; conditions: read-out: Activity
# [26] = Cytotoxicity against human UACC257 cells assessed as cell growth at 0.5 uM after 48 hrs by SRB assay; conditions: UACC-257, 48 h, read-out: Activity
# NCI-H460 = experiment: Cytotoxicity against human NCI-H460 cells assessed as cell growth at 50 uM after 48 hrs by SRB assay; conditions: NCI-H460, 48 h, read-out: Activity
# [27] = Cytotoxicity against human SNB75 cells assessed as cell growth at 5 nM after 48 hrs by SRB assay; conditions: SNB-75, 48 h, read-out: Activity
# EKVX [28] = experiment: Cytotoxicity against human EKVX cells assessed as cell growth at 5 uM after 48 hrs by SRB assay; conditions: read-out: Activity
# K562 [29] = experiment: Cytotoxicity against human K562 cells assessed as cell growth at 50 uM after 48 hrs by SRB assay; conditions: K562, 48 h, read-out: Activity
# K562 [30] = experiment: Cytotoxicity against human K562 cells assessed as cell growth at 0.5 uM after 48 hrs by SRB assay; conditions: K562, 48 h, read-out: Activity
# [31] = Cytotoxicity against human Hs 578T cells assessed as cell growth at 5 uM after 48 hrs by SRB assay; conditions: read-out: Activity
# NCI-H522 = experiment: Cytotoxicity against human NCI-H522 cells assessed as cell growth at 0.5 uM after 48 hrs by SRB assay; conditions: NCI-H522, 48 h, read-out: Activity
compound,measurement,setting,value
C/C(=C(/c1ccc(O)cc1)c1ccc(OCCN2CCCC2)cc1)c1ccccc1,growth at 0.1 µM,[1],105%
same,growth at 0.01 µM,SR,96%
same,growth at 0.01 µM,[2],98%
same,growth at 0.1 µM,[3],103%
same,growth at 0.01 µM,NCI-H23 [4],92%
same,growth at 1 µM,[5],89%
same,growth at 0.01 µM,SK-MEL-5,101%
same,growth at 1 µM,NCI-H23 [6],86%
same,growth at 10 µM,SK-MEL-2 [7],-67%
same,growth at 10 µM,U-251 [8],-33%
same,growth at 100 µM,SK-MEL-28,-93%
same,growth at 0.1 µM,HT-29,97%
same,growth at 1 µM,EKVX [9],78%
same,growth at 1 µM,K562 [10],81%
same,growth at 1 µM,[11],88%
same,growth at 0.1 µM,[12],105%
same,growth at 0.01 µM,SN12C [13],101%
same,growth at 10 µM,SN12C [14],48%
same,growth at 0.1 µM,SK-MEL-2 [15],103%
same,growth at 0.01 µM,U-251 [16],103%
same,growth at 0.01 µM,MDA-MB-468,99%
same,growth at 100 µM,SN12C [17],-69%
CCCCCCCCCC(=O)Oc1ccc(/C(=C(/C)c2ccccc2)c2ccc(OCCN3CCCC3)cc2)cc1,growth at 0.05 µM,[18],90%
same,growth at 5 µM,MCF7,36%
same,growth at 0.5 µM,[19],73%
same,growth at 50 µM,ACHN,-92%
same,growth at 5 µM,[20],89%
same,growth at 0.005 µM,NCI-H23 [21],92%
same,growth at 0.5 µM,CCRF-CEM,76%
same,growth at 5 µM,Malme-3M,81%
same,growth at 0.05 µM,[22],92%
same,growth at 5 µM,786-0,93%
same,growth at 0.05 µM,[23],89%
same,growth at 0.005 µM,[24],92%
same,growth at 0.05 µM,SN12C [25],101%
same,growth at 0.5 µM,[26],76%
same,growth at 50 µM,NCI-H460,-91%
same,growth at 0.005 µM,[27],88%
same,growth at 5 µM,EKVX [28],74%
same,growth at 50 µM,K562 [29],-70%
same,growth at 0.5 µM,K562 [30],34%
same,growth at 5 µM,[31],77%
same,growth at 0.5 µM,NCI-H522,98%
